Laboratory results as given in the NIST ThermoML archive (doi:10.1021/je400722h).

Assay: molar heat capacity at constant pressure; xn = mol fraction of the nth substance listed
Details: 101 kPa, Liquid, Small sample (50 mg) DSC

Cc1ccccc1Cl [2-chlorotoluene] + C1COCCO1
molar heat capacity at constant pressure [J/K/mol]
Details | 298.15 K | 303.15 K | 308.15 K
x1 = 0.0903 | 155.43 | 156.69 | 158.03
x1 = 0.1278 | 156.54 | 157.84 | 159.2
x1 = 0.1654 | 157.65 | 158.98 | 160.36
x1 = 0.2006 | 158.69 | 160.04 | 161.44
x1 = 0.2343 | 159.68 | 161.05 | 162.46
x1 = 0.2765 | 160.9 | 162.3 | 163.73
x1 = 0.3004 | 161.59 | 163 | 164.44
x1 = 0.3421 | 162.78 | 164.21 | 165.66
x1 = 0.3876 | 164.06 | 165.52 | 166.99
x1 = 0.4002 | 164.41 | 165.87 | 167.35
x1 = 0.4327 | 165.31 | 166.79 | 168.28
x1 = 0.4726 | 166.39 | 167.9 | 169.41
x1 = 0.5117 | 167.43 | 168.97 | 170.5
x1 = 0.5401 | 168.17 | 169.73 | 171.28
x1 = 0.5915 | 169.49 | 171.09 | 172.67
x1 = 0.6305 | 170.45 | 172.09 | 173.7
x1 = 0.6721 | 171.46 | 173.13 | 174.77
x1 = 0.7198 | 172.57 | 174.28 | 175.95
x1 = 0.7401 | 173.03 | 174.76 | 176.44
x1 = 0.7623 | 173.53 | 175.27 | 176.97
x1 = 0.8004 | 174.36 | 176.13 | 177.84
x1 = 0.8432 | 175.26 | 177.05 | 178.78
x1 = 0.8856 | 176.11 | 177.92 | 179.66
x1 = 0.9165 | 176.7 | 178.52 | 180.26

Cc1ccccc1Cl [2-chlorotoluene] + C1CCOCC1
molar heat capacity at constant pressure [J/K/mol]
Details | 298.15 K | 303.15 K | 308.15 K
x1 = 0.0897 | 152.82 | 154.4 | 156.2
x1 = 0.1165 | 153.77 | 155.35 | 157.14
x1 = 0.1429 | 154.71 | 156.28 | 158.07
x1 = 0.1929 | 156.46 | 158.04 | 159.8
x1 = 0.2376 | 158.01 | 159.59 | 161.34
x1 = 0.2892 | 159.77 | 161.35 | 163.09
x1 = 0.3218 | 160.85 | 162.44 | 164.17
x1 = 0.3519 | 161.84 | 163.43 | 165.15
x1 = 0.4019 | 163.44 | 165.03 | 166.75
x1 = 0.4427 | 164.71 | 166.31 | 168.01
x1 = 0.4817 | 165.88 | 167.49 | 169.19
x1 = 0.5216 | 167.05 | 168.66 | 170.35
x1 = 0.5549 | 168 | 169.62 | 171.3
x1 = 0.5936 | 169.07 | 170.69 | 172.36
x1 = 0.6215 | 169.81 | 171.44 | 173.11
x1 = 0.6518 | 170.6 | 172.23 | 173.9
x1 = 0.6902 | 171.57 | 173.21 | 174.87
x1 = 0.7205 | 172.31 | 173.96 | 175.62
x1 = 0.7515 | 173.04 | 174.7 | 176.36
x1 = 0.7931 | 173.99 | 175.66 | 177.32
x1 = 0.8156 | 174.49 | 176.17 | 177.83
x1 = 0.8472 | 175.18 | 176.87 | 178.52
x1 = 0.8831 | 175.93 | 177.63 | 179.3
x1 = 0.9146 | 176.56 | 178.29 | 179.96

Cc1ccccc1Cl [2-chlorotoluene] + C1COCO1
molar heat capacity at constant pressure [J/K/mol]
Details | 298.15 K | 303.15 K | 308.15 K
x1 = 0.0865 | 127.97 | 129.15 | 130.3
x1 = 0.1145 | 129.85 | 131.07 | 132.27
x1 = 0.1386 | 131.45 | 132.71 | 133.94
x1 = 0.1829 | 134.37 | 135.68 | 136.97
x1 = 0.2145 | 136.42 | 137.77 | 139.09
x1 = 0.2573 | 139.17 | 140.56 | 141.91
x1 = 0.2965 | 141.65 | 143.06 | 144.45
x1 = 0.3217 | 143.22 | 144.65 | 146.05
x1 = 0.3506 | 144.99 | 146.45 | 147.87
x1 = 0.3902 | 147.38 | 148.87 | 150.31
x1 = 0.4216 | 149.24 | 150.75 | 152.22
x1 = 0.4654 | 151.78 | 153.32 | 154.82
x1 = 0.5007 | 153.78 | 155.35 | 156.88
x1 = 0.5418 | 156.06 | 157.66 | 159.23
x1 = 0.5905 | 158.68 | 160.33 | 161.94
x1 = 0.6218 | 160.32 | 162.01 | 163.64
x1 = 0.663 | 162.44 | 164.17 | 165.83
x1 = 0.6902 | 163.81 | 165.56 | 167.25
x1 = 0.7118 | 164.88 | 166.65 | 168.36
x1 = 0.7534 | 166.91 | 168.72 | 170.46
x1 = 0.7927 | 168.78 | 170.62 | 172.38
x1 = 0.8426 | 171.11 | 172.98 | 174.76
x1 = 0.8914 | 173.35 | 175.22 | 177
x1 = 0.9206 | 174.66 | 176.53 | 178.31
